Source: PubChem BioAssay (NCI)
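GI50 = concentration required for 50% inhibition of growth. TGI is the concentration that stops growth completely.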

Assays:
Assay in all cases: growth of human tumour cells (NCI), 384-well format
SF-295 CNS = tested on: SF-295 CNS
SF-268 CNS = tested on: SF-268 CNS
MALME-3M melanoma = tested on: MALME-3M melanoma
HCT-15 colon = tested on: HCT-15 colon
UACC-257 melanoma = tested on: UACC-257 melanoma
OVCAR-4 ovarian = tested on: OVCAR-4 ovarian
HL-60(TB) leukemia = tested on: HL-60(TB) leukemia
NCI-H226 lung = tested on: NCI-H226 lung
SN12C renal = tested on: SN12C renal
SK-MEL-2 melanoma = tested on: SK-MEL-2 melanoma
SK-MEL-28 melanoma = tested on: SK-MEL-28 melanoma
HCC-2998 colon = tested on: HCC-2998 colon
MDA-MB-468 breast = tested on: MDA-MB-468 breast
SR leukemia = tested on: SR leukemia
M14 melanoma = tested on: M14 melanoma
PC-3 prostate = tested on: PC-3 prostate
RPMI-8226 leukemia = tested on: RPMI-8226 leukemia
EKVX NSCLC = tested on: EKVX NSCLC
SNB-19 CNS = tested on: SNB-19 CNS
DU-145 prostate = tested on: DU-145 prostate
T-47D breast = tested on: T-47D breast
A498 renal = tested on: A498 renal
HOP-62 NSCLC = tested on: HOP-62 NSCLC
HCT-116 colon = tested on: HCT-116 colon
UACC-62 melanoma = tested on: UACC-62 melanoma
CAKI-1 renal = tested on: CAKI-1 renal
MCF7 breast = tested on: MCF7 breast
NCI-H23 lung = tested on: NCI-H23 lung
RXF 393 renal = tested on: RXF 393 renal
K-562 leukemia = tested on: K-562 leukemia

## Cc1nn(C)c(COc2ccc(N3CCN(S(=O)(=O)N(C)C)CC3)cc2)c1-c1cccc2c(CCCOc3cccc4ccccc34)c(C(=O)O)n(CCN3CCOCC3)c12
SF-295 CNS
  TGI: 7.54 µM
SF-268 CNS
  GI50: 5.48 µM
  TGI: 15.2 µM
MALME-3M melanoma
  GI50: 3.73 µM
  TGI: 10.5 µM
HCT-15 colon
  GI50: 12.1 µM
  TGI: 25.5 µM
UACC-257 melanoma
  GI50: 2.99 µM
  TGI: 7.34 µM
OVCAR-4 ovarian
  GI50: 3.43 µM
  TGI: 9.25 µM
HL-60(TB) leukemia
  GI50: 2.12 µM
  TGI: 3.58 µM
NCI-H226 lung
  GI50: 3.65 µM
  TGI: 10.3 µM
SN12C renal
  GI50: 3.55 µM
  TGI: 12.7 µM
SK-MEL-2 melanoma
  GI50: 2.14 µM
  TGI: 3.92 µM
SK-MEL-28 melanoma
  GI50: 3.07 µM
  TGI: 7.47 µM
HCC-2998 colon
  GI50: 3.09 µM
  TGI: 7.88 µM
MDA-MB-468 breast
  GI50: 2.3 µM
  TGI: 4.43 µM
SR leukemia
  GI50: 1.57 µM
  TGI: 2.93 µM
M14 melanoma
  GI50: 4.13 µM
  TGI: 9.35 µM
PC-3 prostate
  GI50: 3.72 µM
  TGI: 10.9 µM
RPMI-8226 leukemia
  GI50: 1.76 µM
  TGI: 3.16 µM
EKVX NSCLC
  GI50: 4.87 µM
  TGI: 16.7 µM
SNB-19 CNS
  GI50: 3.77 µM
  TGI: 12.8 µM
DU-145 prostate
  GI50: 6.23 µM
  TGI: 16.2 µM
T-47D breast
  GI50: 3.6 µM
  TGI: 10.8 µM
A498 renal
  GI50: 3.63 µM
  TGI: 11.1 µM
HOP-62 NSCLC
  GI50: 4.22 µM
  TGI: 11.3 µM
HCT-116 colon
  GI50: 2.87 µM
  TGI: 8.51 µM
UACC-62 melanoma
  GI50: 2.67 µM
  TGI: 5.65 µM
CAKI-1 renal
  GI50: 6.88 µM
  TGI: 17.6 µM
MCF7 breast
  GI50: 3.06 µM
  TGI: 8.69 µM
NCI-H23 lung
  GI50: 3.54 µM
  TGI: 9.43 µM
RXF 393 renal
  GI50: 1.79 µM
  TGI: 5.04 µM
K-562 leukemia
  GI50: 4.21 µM
  TGI: 13.8 µM
